Columns and labels:
Type in all cases: biochemical
PDE2 = target: T1, PDE2 (Homo sapiens, UniProt O00408); experiment: PDE isoenzyme activities in cellular lysates: PDE2; conditions: 100 nM
T1 construct: endogenous in cells
Procedure: (§1) Cells (1-3×10^6) were washed twice in phosphate buffered saline (4° C.) and resuspended in 1 ml homogenization buffer (137 mM NaCl, 2.7 mM KCl, 8.1 mM Na2HPO4, 1.5 mM KH2PO4, 10 mM HEPES, 1 mM EGTA, 1 mM MgCl2, 1 mM-mercaptoethanol, […], […], 50 mM phenylmethylsulfonyl fluoride, 10 mM soybean trypsin inhibitor, 2 mM benzamidine, pH 8.2). Cells were disrupted by sonication (Branson sonifier, 3×15 s) and lysates were immediately used for phosphodiesterase (PDE) activity measurements. PDE activities were assessed in cellular lysates as described (Thompson & Appleman, 1979) with some modifications (Bauer & Schwabe, 1980). The assay mixture (final volume […]) contained (mM): Tris HCl 30; pH 7.4, MgCl2 5, 0.5 μM either cyclic AMP or cyclic GMP as substrate including [^3H]cAMP or [^3H]cGMP (about 30 000 c.p.m. per well), […], PDE isoenzyme-specific activators and inhibitors as described below and cellular lysates. Incubations were performed for 60 min at 37° C. and reactions were terminated by adding […] 0.2 M HCl per well. Assays were left on ice for 10 min and then […] 5′-nucleotidase (Crotalus atrox) was added. […] Columns were eluted with 2 ml 30 mM ammonium formiate (pH 6.0) and radioactivity in the eluate was counted. […] Briefly, PDE4 was calculated as the difference of PDE activities at 0.5 μM cyclic AMP in the presence and absence of 1 μM Piclamilast. […]

PDE3 = experiment: PDE isoenzyme activities in cellular lysates: PDE3; conditions: 10 μM, 0.5 μM cyclic AMP
Procedure: as §1

PDE5 = target: T2, PDE5 (Homo sapiens, UniProt O76074); experiment: PDE isoenzyme activities in cellular lysates: PDE5; conditions: 100 nM, 0.5 μM cyclic GMP
T2 construct: PDE activities were assessed in cellular lysates; endogenous in cells
Procedure: Cells (1-3×10^6) were washed twice in phosphate buffered saline (4° C.) and resuspended in 1 ml homogenization buffer (137 mM NaCl, 2.7 mM KCl, 8.1 mM Na2HPO4, 1.5 mM KH2PO4, 10 mM HEPES, 1 mM EGTA, 1 mM MgCl2, 1 mM-mercaptoethanol, 5 mM pepstatin A, 10 mM leupeptin, 50 mM phenylmethylsulfonyl fluoride, 10 mM soybean trypsin inhibitor, 2 mM benzamidine, pH 8.2). Cells were disrupted by sonication (Branson sonifier, 3×15 s) and lysates were immediately used for phosphodiesterase (PDE) activity measurements. PDE activities were assessed in cellular lysates as described (Thompson & Appleman, 1979) with some modifications (Bauer & Schwabe, 1980). The assay mixture (final volume 200 ml) contained (mM): Tris HCl 30; pH 7.4, MgCl2 5, 0.5 μM either cyclic AMP or cyclic GMP as substrate including [^3H]cAMP or [^3H]cGMP (about 30 000 c.p.m. per well), 100 mM EGTA, PDE isoenzyme-specific activators and inhibitors as described below and cellular lysates. Incubations were performed for 60 min at 37° C. and reactions were terminated by adding 50 ml 0.2 M HCl per well. Assays were left on ice for 10 min and then 25 mg 5′-nucleotidase (Crotalus atrox) was added. Following an incubation for 10 min at 37° C. assay mixtures were loaded onto QAE-Sephadex A25 columns (1 ml bed volume). Columns were eluted with 2 ml 30 mM ammonium formiate (pH 6.0) and radioactivity in the eluate was counted. […]

PDE4 = experiment: PDE isoenzyme activities in cellular lysates: PDE4; conditions: 1 μM, 0.5 μM cyclic AMP
Procedure: as §1

human recombinant PDE2A3 = human recombinant PDE2A3 (Homo sapiens, UniProt O00408); experiment: Inhibition of recombinant PDE activity, SPA test: PDE2A3; conditions: human recombinant enzyme; read-out: IC50 on PDE 2A3
Procedure: (§2) Measurement of the Inhibition of Phosphodiesterase Activity Phosphodiesterase activity is measured in a modified SPA (scintillation proximity assay) test, supplied by Amersham Biosciences (see procedural instructions “phosphodiesterase [3H]cAMP SPA enzyme assay, code TRKQ 7090”), carried out in 96-well microtitre plates (MTP's): The test volume is 100 μl and contains 20 mM Tris buffer (pH 7.4), 0.1 mg of BSA (bovine serum albumin)/ml, 5 mM Mg^2+, 0.5 μM cGMP or cAMP (including about 50,000 cpm of [3H]cGMP or [3H]cAMP as a tracer; whether to use cAMP or cGMP depends on the substrate-specificity of the phosphodiesterase measured), 1 μl of the respective substance dilution in DMSO and sufficient recombinant PDE to ensure that 10-20% of the cGMP or cAMP is converted under the said experimental conditions. […] After a preincubation of 5 min at 37° C., the reaction is started by adding the substrate (cGMP) and the assay is incubated for a further 15 min; after that, it is stopped by adding SPA beads (50 μl). […] After the beads have been sedimented (>30 min), the MTP's are analyzed in commercially available luminescence detection devices. The corresponding IC50 values of the compounds for the inhibition of PDE activity are determined from the concentration-effect curves by means of non-linear regression.
(§3) Compound A and B are analyzed for inhibition of PDE family members as described.

human recombinant PDE5A1 = human recombinant PDE5A1 (Homo sapiens, UniProt O76074); experiment: Inhibition of recombinant PDE activity, SPA test: PDE5A1; conditions: human recombinant enzyme; read-out: IC50 on PDE 5A1
Procedure: as §2, §3

human recombinant PDE1C1 = human recombinant PDE1C1 (Homo sapiens, UniProt Q14123); experiment: Inhibition of recombinant PDE activity, SPA test: PDE1C1; conditions: for IC50: human recombinant enzyme, read-out: IC50 on PDE 1C1; for Selectivity for PDE1C1 versus other PDE family members tested: see Tab. 1
Procedure: Measurement of the Inhibition of Phosphodiesterase Activity Phosphodiesterase activity is measured in a modified SPA (scintillation proximity assay) test, supplied by Amersham Biosciences (see procedural instructions “phosphodiesterase [3H]cAMP SPA enzyme assay, code TRKQ 7090”), carried out in 96-well microtitre plates (MTP's): The test volume is 100 μl and contains 20 mM Tris buffer (pH 7.4), 0.1 mg of BSA (bovine serum albumin)/ml, 5 mM Mg^2+, 0.5 μM cGMP or cAMP (including about 50,000 cpm of [3H]cGMP or [3H]cAMP as a tracer; whether to use cAMP or cGMP depends on the substrate-specificity of the phosphodiesterase measured), 1 μl of the respective substance dilution in DMSO and sufficient recombinant PDE to ensure that 10-20% of the cGMP or cAMP is converted under the said experimental conditions. […] After a preincubation of 5 min at 37° C., the reaction is started by adding the substrate (cGMP) and the assay is incubated for a further 15 min; after that, it is stopped by adding SPA beads (50 μl). In accordance with the manufacturer's instructions, the SPA beads had previously been resuspended in water, but were then diluted 1:3 (v/v) in water; the diluted solution also contains 3 mM IBMX to ensure a complete PDE activity stop. After the beads have been sedimented (>30 min), the MTP's are analyzed in commercially available luminescence detection devices. The corresponding IC50 values of the compounds for the inhibition of PDE activity are determined from the concentration-effect curves by means of non-linear regression.
as §3

human recombinant PDE4B2 = human recombinant PDE4B2 (Homo sapiens, UniProt Q07343); experiment: Inhibition of recombinant PDE activity, SPA test: PDE4B2; conditions: human recombinant enzyme; read-out: IC50 on PDE 4B2
Procedure: as §2, §3

human recombinant PDE3A1 = human recombinant PDE3A1 (Homo sapiens, UniProt Q14432); experiment: Inhibition of recombinant PDE activity, SPA test: PDE3A1; conditions: human recombinant enzyme; read-out: IC50 on PDE 3A1
Procedure: as §2, §3

[1] = target: human recombinant PDE11A4 (Homo sapiens, UniProt Q9HCR9); experiment: Inhibition of recombinant PDE activity, SPA test: PDE11A4; conditions: human recombinant enzyme; read-out: IC50 on PDE 11A4
Procedure: as §2, §3

human recombinant PDE10A = human recombinant PDE10A (Homo sapiens, UniProt Q9Y233); experiment: Inhibition of recombinant PDE activity, SPA test: PDE10A; conditions: human recombinant enzyme; read-out: IC50 on PDE 10A
Procedure: as §2, §3

human recombinant PDE1C1, sequence (Q14123 1-634 isoform Q14123-2): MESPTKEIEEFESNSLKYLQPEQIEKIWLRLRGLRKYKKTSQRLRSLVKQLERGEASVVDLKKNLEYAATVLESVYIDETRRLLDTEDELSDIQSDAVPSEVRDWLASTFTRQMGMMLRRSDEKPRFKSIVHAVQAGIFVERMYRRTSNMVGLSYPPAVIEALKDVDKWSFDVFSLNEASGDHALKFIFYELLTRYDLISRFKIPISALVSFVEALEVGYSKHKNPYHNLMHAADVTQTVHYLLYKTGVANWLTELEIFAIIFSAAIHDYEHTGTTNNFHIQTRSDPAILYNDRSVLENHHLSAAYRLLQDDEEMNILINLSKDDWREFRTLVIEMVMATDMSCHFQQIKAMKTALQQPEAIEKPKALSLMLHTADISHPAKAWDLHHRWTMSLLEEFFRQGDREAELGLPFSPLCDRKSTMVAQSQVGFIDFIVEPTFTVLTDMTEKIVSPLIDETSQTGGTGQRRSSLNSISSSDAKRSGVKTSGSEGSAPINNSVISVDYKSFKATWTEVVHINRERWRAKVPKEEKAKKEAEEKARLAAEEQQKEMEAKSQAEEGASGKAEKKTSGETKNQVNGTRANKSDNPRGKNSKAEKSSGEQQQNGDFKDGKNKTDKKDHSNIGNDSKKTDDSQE
human recombinant PDE10A, sequence (Q9Y233 290-1055 limits assumed): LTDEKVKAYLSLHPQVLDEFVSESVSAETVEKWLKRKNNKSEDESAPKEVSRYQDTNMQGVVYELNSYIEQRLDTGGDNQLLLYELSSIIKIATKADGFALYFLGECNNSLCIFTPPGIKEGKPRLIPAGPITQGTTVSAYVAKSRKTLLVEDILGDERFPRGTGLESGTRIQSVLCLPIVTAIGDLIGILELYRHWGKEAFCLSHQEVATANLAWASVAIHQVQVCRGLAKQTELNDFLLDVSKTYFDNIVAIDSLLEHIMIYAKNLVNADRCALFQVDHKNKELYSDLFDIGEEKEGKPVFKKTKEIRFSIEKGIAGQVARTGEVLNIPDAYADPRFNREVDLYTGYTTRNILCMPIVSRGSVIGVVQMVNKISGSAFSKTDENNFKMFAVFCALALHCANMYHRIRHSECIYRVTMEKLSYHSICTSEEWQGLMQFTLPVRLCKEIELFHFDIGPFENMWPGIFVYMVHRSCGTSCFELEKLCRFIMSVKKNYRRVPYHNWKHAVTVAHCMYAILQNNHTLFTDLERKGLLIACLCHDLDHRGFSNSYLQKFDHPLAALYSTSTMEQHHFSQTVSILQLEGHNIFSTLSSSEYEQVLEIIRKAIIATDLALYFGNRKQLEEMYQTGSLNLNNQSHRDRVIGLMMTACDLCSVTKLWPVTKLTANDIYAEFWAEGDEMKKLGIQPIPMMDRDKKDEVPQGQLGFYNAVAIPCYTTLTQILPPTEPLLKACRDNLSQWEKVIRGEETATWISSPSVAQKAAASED
human recombinant PDE3A1, sequence (Q14432 whole entry): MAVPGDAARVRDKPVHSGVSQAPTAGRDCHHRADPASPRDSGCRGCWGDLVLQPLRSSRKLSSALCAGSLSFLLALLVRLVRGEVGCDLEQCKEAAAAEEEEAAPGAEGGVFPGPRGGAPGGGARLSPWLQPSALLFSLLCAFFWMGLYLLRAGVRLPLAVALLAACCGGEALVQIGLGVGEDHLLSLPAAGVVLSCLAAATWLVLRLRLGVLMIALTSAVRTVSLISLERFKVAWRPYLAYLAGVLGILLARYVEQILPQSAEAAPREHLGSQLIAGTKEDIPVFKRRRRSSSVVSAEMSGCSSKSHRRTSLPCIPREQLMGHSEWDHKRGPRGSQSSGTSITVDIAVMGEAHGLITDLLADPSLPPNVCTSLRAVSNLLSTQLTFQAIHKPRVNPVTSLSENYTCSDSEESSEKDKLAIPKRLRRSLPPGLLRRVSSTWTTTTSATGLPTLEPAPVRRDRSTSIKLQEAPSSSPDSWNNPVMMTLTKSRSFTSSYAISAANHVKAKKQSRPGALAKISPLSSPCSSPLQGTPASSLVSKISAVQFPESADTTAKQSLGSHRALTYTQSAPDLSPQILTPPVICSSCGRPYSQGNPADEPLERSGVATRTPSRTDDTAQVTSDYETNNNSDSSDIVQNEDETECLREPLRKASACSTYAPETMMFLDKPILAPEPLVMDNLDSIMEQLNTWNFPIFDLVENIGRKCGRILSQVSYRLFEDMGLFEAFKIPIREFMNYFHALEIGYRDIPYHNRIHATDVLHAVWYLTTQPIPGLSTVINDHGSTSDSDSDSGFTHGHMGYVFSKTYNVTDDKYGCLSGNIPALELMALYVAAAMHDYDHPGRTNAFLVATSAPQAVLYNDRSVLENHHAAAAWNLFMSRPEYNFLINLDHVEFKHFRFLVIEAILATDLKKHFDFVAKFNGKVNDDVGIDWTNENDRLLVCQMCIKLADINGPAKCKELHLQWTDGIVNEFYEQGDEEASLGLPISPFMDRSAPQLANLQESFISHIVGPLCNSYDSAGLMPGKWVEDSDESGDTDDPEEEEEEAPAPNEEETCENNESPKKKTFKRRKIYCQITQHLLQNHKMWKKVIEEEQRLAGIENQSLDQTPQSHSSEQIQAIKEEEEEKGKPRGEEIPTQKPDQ
human recombinant PDE4B2, sequence (Q07343 1-564 isoform Q07343-2): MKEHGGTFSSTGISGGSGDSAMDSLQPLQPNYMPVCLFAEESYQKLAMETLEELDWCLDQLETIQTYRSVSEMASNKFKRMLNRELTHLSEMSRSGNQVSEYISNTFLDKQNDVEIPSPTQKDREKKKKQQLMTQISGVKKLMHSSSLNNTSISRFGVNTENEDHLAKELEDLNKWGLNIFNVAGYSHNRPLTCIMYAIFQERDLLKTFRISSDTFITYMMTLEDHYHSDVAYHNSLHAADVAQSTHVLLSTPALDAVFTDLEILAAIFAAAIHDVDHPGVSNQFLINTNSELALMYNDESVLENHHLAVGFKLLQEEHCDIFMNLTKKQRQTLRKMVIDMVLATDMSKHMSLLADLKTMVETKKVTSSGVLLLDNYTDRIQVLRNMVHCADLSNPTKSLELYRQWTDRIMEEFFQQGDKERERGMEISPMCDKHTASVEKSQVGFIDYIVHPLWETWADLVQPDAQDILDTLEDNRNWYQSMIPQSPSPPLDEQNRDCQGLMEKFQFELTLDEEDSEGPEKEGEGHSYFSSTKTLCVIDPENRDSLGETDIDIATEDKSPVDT
human recombinant PDE11A4, sequence (Q9HCR9 whole entry): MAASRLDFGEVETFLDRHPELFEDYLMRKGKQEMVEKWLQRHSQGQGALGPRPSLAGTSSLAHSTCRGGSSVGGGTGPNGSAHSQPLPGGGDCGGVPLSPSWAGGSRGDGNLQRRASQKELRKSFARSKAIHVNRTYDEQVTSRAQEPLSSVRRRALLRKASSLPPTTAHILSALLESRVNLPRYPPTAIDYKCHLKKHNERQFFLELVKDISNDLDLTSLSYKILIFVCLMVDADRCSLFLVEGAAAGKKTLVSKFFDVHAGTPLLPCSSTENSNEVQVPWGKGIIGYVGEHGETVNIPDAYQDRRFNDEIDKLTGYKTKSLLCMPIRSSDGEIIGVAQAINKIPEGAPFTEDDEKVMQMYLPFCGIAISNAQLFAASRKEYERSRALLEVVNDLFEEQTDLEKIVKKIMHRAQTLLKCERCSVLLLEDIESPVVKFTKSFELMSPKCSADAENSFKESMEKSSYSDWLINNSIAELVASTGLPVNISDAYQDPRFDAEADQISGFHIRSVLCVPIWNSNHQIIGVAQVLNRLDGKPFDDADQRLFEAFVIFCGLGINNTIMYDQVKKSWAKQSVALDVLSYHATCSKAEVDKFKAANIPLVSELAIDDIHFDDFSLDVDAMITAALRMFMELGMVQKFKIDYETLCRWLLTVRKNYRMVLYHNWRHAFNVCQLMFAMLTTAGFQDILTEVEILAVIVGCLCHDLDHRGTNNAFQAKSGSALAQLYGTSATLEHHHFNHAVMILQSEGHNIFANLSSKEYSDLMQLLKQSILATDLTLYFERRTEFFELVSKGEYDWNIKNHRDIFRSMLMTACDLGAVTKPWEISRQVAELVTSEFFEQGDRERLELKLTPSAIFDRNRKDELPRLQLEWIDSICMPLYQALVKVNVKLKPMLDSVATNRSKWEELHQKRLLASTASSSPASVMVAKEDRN
human recombinant PDE2A3, sequence (O00408 whole entry): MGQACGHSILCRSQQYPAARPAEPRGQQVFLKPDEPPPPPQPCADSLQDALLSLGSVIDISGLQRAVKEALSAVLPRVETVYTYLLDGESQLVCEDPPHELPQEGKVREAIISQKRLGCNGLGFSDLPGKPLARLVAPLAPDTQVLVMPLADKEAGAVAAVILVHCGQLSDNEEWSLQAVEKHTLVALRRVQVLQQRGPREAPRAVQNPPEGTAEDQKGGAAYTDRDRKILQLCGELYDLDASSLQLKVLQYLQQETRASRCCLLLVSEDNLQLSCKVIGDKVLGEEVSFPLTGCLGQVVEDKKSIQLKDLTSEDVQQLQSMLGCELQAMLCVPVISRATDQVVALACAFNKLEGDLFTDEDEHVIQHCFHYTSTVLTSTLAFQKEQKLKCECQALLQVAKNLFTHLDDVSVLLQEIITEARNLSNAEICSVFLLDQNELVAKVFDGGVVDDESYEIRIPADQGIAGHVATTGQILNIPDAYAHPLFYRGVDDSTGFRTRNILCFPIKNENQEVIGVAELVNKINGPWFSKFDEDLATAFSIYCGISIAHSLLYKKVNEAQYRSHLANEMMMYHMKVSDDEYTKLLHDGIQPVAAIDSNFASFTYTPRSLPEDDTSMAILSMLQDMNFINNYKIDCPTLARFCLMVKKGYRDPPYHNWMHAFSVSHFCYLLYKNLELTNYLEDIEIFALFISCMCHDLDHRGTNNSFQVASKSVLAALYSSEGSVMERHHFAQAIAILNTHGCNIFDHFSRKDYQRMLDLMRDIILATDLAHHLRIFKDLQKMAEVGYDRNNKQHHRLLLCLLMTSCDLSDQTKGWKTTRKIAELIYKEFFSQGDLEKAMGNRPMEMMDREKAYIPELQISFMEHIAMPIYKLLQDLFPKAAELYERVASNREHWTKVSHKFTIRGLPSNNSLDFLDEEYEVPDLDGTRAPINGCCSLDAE
T1 sequence (O00408 whole entry): as above

IC50 (human recombinant PDE2A3) [µM] | IC50 (human recombinant PDE5A1) [µM] | IC50 value on human recombinant PDE1C1, in words (human recombinant PDE1C1) | IC50 (human recombinant PDE1C1) [µM] | IC50 (human recombinant PDE4B2) [µM] | IC50 (human recombinant PDE3A1) [µM] | IC50 [1] [µM] | IC50 (human recombinant PDE10A) [µM] | Structure (SMILES) | Selectivity for PDE1C1 versus other PDE family members tested (human recombinant PDE1C1) | also measured
– | – | – | – | – | – | – | – | COc1ccc(Cc2nc3c(ncn3C(CCCc3ccccc3)C(C)=O)c(=O)[nH]2)cc1OC (stereo not shown) [PDP] | – | Inhibition of cyclic GMP-induced cyclic AMP degrading activity increment (PDE2) (PDE2): completely inhibited
– | – | – | – | – | – | – | – | CC1CC(=O)NN=C1c1cc(-n2ccnc2)cs1 (stereo not shown) [Motapizone] | – | Block of PDE3 activity (PDE3): completely blocked
– | – | – | – | – | – | – | – | CCCc1nn(C)c2c(=O)[nH]c(-c3cc(S(=O)(=O)N4CCN(C)CC4)ccc3OCC)nc12 [Sildenafil] | – | Block of PDE5 activity (PDE5): completely blocked
– | – | – | – | – | – | – | – | COc1ccc(C(=O)Nc2c(Cl)cncc2Cl)cc1OC1CCCC1 [Piclamilast] | – | Block of PDE4 activity (PDE4): completely blocked
> 100 | > 100 | in the nanomolar range | 0.083 | > 100 | > 100 | > 100 | > 100 | CC(C)(C)CC(C)(C)c1ccc(OCC(=O)N/N=C/c2ccc(-c3cccc(C(=O)O)c3)o2)c([N+](=O)[O-])c1 [Compound A] | selective versus other PDE family members tested | –
13 | 16 | in the nanomolar range | 0.1 | 9.3 | > 100 | 22 | 77 | Cc1ccc(/C(O)=C2/C(=O)C(=O)N(c3ccccc3)C2=S)cc1 [Compound B, 4-[Hydroxy(4-methylphenyl)methylidene]-1-phenyl-5-thioxopyrrolidine-2,3-dione] | selective versus other PDE family members tested | –

— patent US20090030065A1, “Use of Pde1c and Inhibitors Thereof” (NYCOMED GmbH, priority 2005, published 2009)
